Experimental data reported in patent US9512139B2, “Conformationally constrained, fully synthetic macrocyclic compounds” (POLYPHOR AG, priority 2009, dated 2016).

Columns and labels:
[1] = target: T1, Motilin Receptor (Homo sapiens, UniProt O43193); experiment: Ca2+ assay (FLIPR) for the GPCR motilin receptor, agonist and antagonist mode; format: cell-based; conditions: antagonist mode
T1 construct: host or cells: Ca2+ optimized hematopoietic cell lines (rat)
Experimental: Ca^2+ Assays for the GPCRs Motilin Receptor, Prostaglandin F (FP) Receptor, 5-hydroxytryptamine 2B (5-HT2B) Receptor, and Purinoreceptor P2Y1
Assays were performed using on a FLIPR^TETRA fluorometric imaging plate reader (Molecular Devices) with ScreenWorks Version 2 (Molecular Devices) as device operating and data analysis software.
Dose dependent agonist and antagonist activities were determined. Percentage activation and percentage inhibition values were determined.
Percentage activation was determined upon initial addition of the sample compounds followed by 10 minutes incubation at 25° C. Following compound incubation, reference agonists were added at EC80 to determine percentage inhibition.
Reference agonists were purchased from reputable commercial vendors and prepared according to each ligand's specifications. All handling of ligands were done to ensure proper control throughout the experiments.
Example compounds were weighed on a Microbalance (Mettler MX5) and dissolved in 100% DMSO to a final concentration of 2.5 mM and subsequently diluted into the assay buffer.
The Assay buffer was a supplemented HBSS (Hank's Balanced Salt Solution). HBSS was supplemented with 20 mM HEPES (4-(2-hydroxyethyl)-piperazin-1-ethansulfonic acid) and 2.5 mM Probenecid (Sigma P8761).
GPCR assays were performed using Ca^2+ optimized hematopoietic cell lines (rat) with cultures never exceeding 90% confluency. […] After seeding, the assay plates were incubated for forty-five (45) minutes at room temperature. After room temperature incubation, the assay plates were incubated at 37° C. 5% CO2 for 24 hours prior to assaying.
All GPCR assays were performed using Fluo-8 Ca^2+ dye. Ca^2+ dye was prepared at 1× dye concentration in GPCR assay buffer. After 24 hours of incubation, cells were washed with GPCR assay buffer, and then Ca^2+-dye (100 μL/well) was added.
The plates were incubated for 90 minutes at 30° C. 5% CO2 prior to FLIPR assay.
Compound plates were prepared to add 50 μL/well during the agonist assay mode. During the FLIPR assay, 50 μL/well from the compound plate was diluted 3-fold into the existing 100 μL/well from the dye loading step. Therefore all compounds were prepared as 3× the final concentration desired in the assay.
After completion of the first single addition assay run, assay plate was removed from the FLIPR Tetra and placed at 25° C. for seven (7) minutes before antagonist assay.
Using the EC80 values determined during the agonist assay, all pre-incubated sample compound and reference antagonist (if applicable) wells were stimulated at the EC80 of the reference agonist. As reference ligands for the first three assays their obvious natural ligands motilin, prostaglandin F2α, and serotonin (5-HT, 5-Hydroxytryptamine) were used; and for the P2Y1 assay 2MeSATP (2-methyl-thio-adeno-sine 5′-triphosphate, i.e. (2R,3S,4R)-5-(6-amino-2-methylsulfanyl-purin-9-yl)-3,4-dihydroxy-tetrahydrofuran-2-yl]methyl (hydroxy-phosphonooxy-phosphoryl)hydrogen phosphate) was applied.
After the addition of the reference agonist fluorescence was monitored for 180 sec using FLIPR Tetra.
Data Analysis and Results:
From the FLIPR data, with negative control correction enabled, the maximum statistic for each well was exported and percentage activation relative to Emax control was calculated.

[2] = Metabolic stability assay, human microsomes; format: in vitro ADME; conditions: human, microsomes; for half-life at 10 µM: both sexes; for Metabolic Stability 60 min hum [% remain.]: both, 1 h, 10 µM
[3] = in vitro; format: in vitro ADME, human; conditions: human, plasma, 10 µM; for Plasma Stability 240 min hum [% remain.]: 4 h
[4] = in vitro; format: in vitro ADME, mouse; conditions: both, CD-1, mouse, plasma, 10 µM; for Plasma Stability 240 min mouse [% remain.]: 4 h
Experimental: Example compounds were dissolved in DMSO/H2O 90:10 to a final concentration of 10 mM for plasma stability determination and metabolic stability determination.
Human plasma (3-5 donors, Blutspendedienst SRK, Basel) and CD-1 mouse plasma (mixed gender pool >50 animals, Innovative Research, CA, USA) are both sodium citrate stabilized. The assay is performed in triplicates at 10 μM compound concentration and 37° C. Samples are taken at 0, 15, 60, and 240 minutes and stopped by precipitation with 2 volumes of acetonitrile. The supernatant is collected, evaporated and reconstituted in a 5% acetonitrile solution to be analyzed by HPLC/MS/MS. The resulting peak area counts are expressed in percent of the 0 value and used to determine the endpoint stability in % and the half life in minutes. In order to monitor assay integrity the degradation of propantheline is assayed with every experimental set.

[5] = Metabolic stability assay, CD-1 mouse microsomes; format: in vitro ADME; conditions: CD-1, mouse, microsomes; for Metabolic Stability 60 min mouse [% remain.] / Metabolic Stability T½ [min] mouse: both, 10 µM; for Metabolic Stability 60 min mouse [% remain.]: 1 h
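For Plasma Stability 240 min mouse [% remain.] in this document: sodium citrate stabilized mouse plasma, parent compound quantified by HPLC/MS/MS relative to its peak area at time zero, run in triplicate.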
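For Plasma Stability T½ [min] mouse in this document: sodium citrate stabilized mouse plasma, parent compound quantified by HPLC/MS/MS relative to its peak area at time zero, run in triplicate.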

T1 sequence (O43193 whole entry, species assumed): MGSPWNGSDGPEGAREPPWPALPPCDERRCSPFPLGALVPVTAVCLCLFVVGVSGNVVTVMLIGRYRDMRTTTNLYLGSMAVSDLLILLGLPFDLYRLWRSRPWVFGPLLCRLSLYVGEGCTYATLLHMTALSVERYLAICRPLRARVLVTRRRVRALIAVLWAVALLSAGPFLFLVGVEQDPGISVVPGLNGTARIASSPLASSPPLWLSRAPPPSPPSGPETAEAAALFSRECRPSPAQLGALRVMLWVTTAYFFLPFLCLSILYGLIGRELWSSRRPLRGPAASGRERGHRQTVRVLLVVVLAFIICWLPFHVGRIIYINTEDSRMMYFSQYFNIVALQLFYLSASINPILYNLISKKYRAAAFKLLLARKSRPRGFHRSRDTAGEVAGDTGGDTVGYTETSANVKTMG

CC(=O)NCCNC(=O)[C@@H]1CCC(=O)N(C)CC(=O)N2C[C@@H](NC(=O)Cc3cccc4ccccc34)C[C@H]2COc2ccc(F)cc2C(=O)N1C [Ex. 487, (2S,11S,19aS)-N-[2-(acetylamino)ethyl]-15-fluoro-7,12-dimethyl-2-{[2-(1-naphthyl)acetyl]amino}-5,8,13-trioxo-2,3,6,7,8,9,10,11,12,13,19,19a-dodecahydro-1H,5H-pyrrolo[2,1-c] [1,4,7,12]benzoxatri-azacyclopentadecine-11-carboxamide]
inhibition at 10 µM ([1]; at 10 μM): 47%

CN1CC(=O)N2CC(NC(=O)Cc3cccc4ccccc34)CC2COc2ccc(F)cc2C(=O)N(C)C(C(=O)NCCNc2ccccn2)CCC1=O [Ex. 485, [2S,11S,19aS)-15-fluoro-7,12-dimethyl-2-{[2-(1-naphthyl)acetyl]amino}-5,8,13-trioxo-N-[2-(2-pyridinylamino)ethyl]-2,3,6,7,8,9,10,11,12,13,19,19a-dodecahydro-1H,5H-pyrrolo[2,1-c] [1,4,7,12]benzoxatriaza-cyclopentadecine-11-carboxamide]
half-life at 10 µM [2]: 0.233 h
Metabolic Stability 60 min hum [% remain.] [2]: 8 % remain.
IC50 [1]: 0.28 µM
inhibition at 10 µM ([1]; at 10 μM): 93%
Plasma Stability T½ [min] hum [3]: > 240 min
Plasma Stability 240 min hum [% remain.] [3]: 100 % remain.
Plasma Stability T½ [min] mouse [4]: > 240 min
Plasma Stability 240 min mouse [% remain.] [4]: 99 % remain.
half-life at 10 µM ([5]; both sexes): 0.283 h
Metabolic Stability 60 min mouse [% remain.] [5]: 11 % remain.

CN(C)CCNC(=O)[C@@H]1CCC(=O)N(C)CC(=O)N2C[C@@H](NC(=O)Cc3cccc4ccccc34)C[C@H]2COc2ccc(F)cc2C(=O)N1C [Ex. 49, (2S,11S,19aS}-N-[2-(dimethylamino)ethyl]-15-fluoro-7,12-dimethyl-2-{[2-(1-naphthyl)acetyl]amino}-5,8,13-trioxo-2,3,6,7,8,9,10,11,12,13,19,19a-dodecahydro-1H,5H-pyrrolo[2,1-c] [1,4,7,12] benzoxatriazacyclopentadecine-11-carboxamide]
half-life at 10 µM [2]: 0.4 h
Metabolic Stability 60 min hum [% remain.] [2]: 10 % remain.
IC50 [1]: 0.16 µM
inhibition at 10 µM ([1]; at 10 μM): 98%
Plasma Stability T½ [min] hum [3]: > 240 min
Plasma Stability 240 min hum [% remain.] [3]: 83 % remain.
Plasma Stability T½ [min] mouse [4]: > 240 min
Plasma Stability 240 min mouse [% remain.] [4]: 96 % remain.
Metabolic Stability T½ [min] mouse [5]: > 60 min
Metabolic Stability 60 min mouse [% remain.] [5]: 83 % remain.

CN(C)CCNC(=O)[C@@H]1CCC(=O)N(C)CC(=O)N2C[C@@H](NC(=O)Nc3cccc4ccccc34)C[C@H]2COc2ccc(F)cc2C(=O)N1C [Ex. 482, (2S,11S,19aS)-N-[2-(dimethylamino)ethyl]-15-fluoro-7,12-dimethyl-2-{[(1-naphthylamino)carbonyl]amino}-5,8,13-trioxo-2,3,6,7,8,9,10, 11,12,13,19,19a-dodecahydro-1H,5H-pyrrolo [2,1-c] [1,4,7,12]benzoxatriazacyclopentadecine-11-carboxamide]
half-life at 10 µM [2]: 0.367 h
Metabolic Stability 60 min hum [% remain.] [2]: 11 % remain.
IC50 [1]: 1.1 µM
inhibition at 10 µM ([1]; at 10 μM): 62%
Plasma Stability T½ [min] hum [3]: > 240 min
Plasma Stability 240 min hum [% remain.] [3]: 100 % remain.
Plasma Stability T½ [min] mouse [4]: > 240 min
Plasma Stability 240 min mouse [% remain.] [4]: 100 % remain.
Metabolic Stability T½ [min] mouse [5]: > 60 min
Metabolic Stability 60 min mouse [% remain.] [5]: 84 % remain.

CN(C)CCNC(=O)[C@@H]1CCC(=O)N(C)CC(=O)N2C[C@@H](NCCc3cccc4ccccc34)C[C@H]2COc2ccc(F)cc2C(=O)N1C [Ex. 486, (2S,11S,19aS)-N-[2-(dimethylamino)ethyl]-15-fluoro-7,12-dimethyl-2-{[2-(1-naphthyl)ethyl]amino}-5,8,13-trioxo-2,3,6,7,8,9,10,11,12,13,19,19a-dodecahydro-1H,5H-pyrrolo[2,1-c] [1,4,7,12]benzoxatri-azacyclopentadecine-11-carboxamide]
half-life at 10 µM [2]: 0.383 h
Metabolic Stability 60 min hum [% remain.] [2]: 13 % remain.
IC50 [1]: 0.18 µM
inhibition at 10 µM ([1]; at 10 μM): 93%
Plasma Stability T½ [min] hum [3]: > 240 min
Plasma Stability 240 min hum [% remain.] [3]: 100 % remain.
Plasma Stability T½ [min] mouse [4]: > 240 min
Plasma Stability 240 min mouse [% remain.] [4]: 98 % remain.
Metabolic Stability T½ [min] mouse [5]: > 60 min
Metabolic Stability 60 min mouse [% remain.] [5]: 100 % remain.

COc1cccc(CC(=O)N[C@H]2C[C@H]3COc4ccc(F)cc4C(=O)N(C)[C@H](C(=O)NCCN(C)C)CCC(=O)N(C)CC(=O)N3C2)c1 [Ex. 496, (2S,11S,19aS)-N-[2-(dimethylamino)ethyl]-15-fluoro-2-{[2-{3-methoxyphenyl)acetyl]amino}-7,12-dimethyl-5,8,13-trioxo-2,3,6,7,8,9,10,11,12,13,19,19a-dodecahydro-1H,5H-pyrrolo[2,1-c] [1,4,7,12]benzoxatriazacyclopentadecine-11-carboxamide]
inhibition at 10 µM ([1]; at 10 μM): 31%

CN1CC(=O)N2C[C@@H](NC(=O)Cc3cccc4ccccc34)C[C@H]2COc2ccc(F)cc2C(=O)N(C)[C@H](C(=O)NCc2cccnc2)CCC1=O [Ex. 497, (2S,11S,19aS)-15-fluoro-7,12-dimethyl-2-{[2-(1-naphthyl)acetyl]amino}-5,8,13-trioxo-N-(3-pyridinylmethyl)-2,3,6,7,8,9, 10,11,12,13,19,19a-dodecahydro-1H,5H-pyrrolo[2,1-c][1,4,7,12]benzoxatriazacyclo-pentadecine-11-carboxamide]
Antagonist activity [% Inhibition at 10 μM] ([1]; at 10 μM): 24%

CN(C)CCCNC(=O)[C@@H]1CCC(=O)N(C)CC(=O)N2C[C@@H](NC(=O)Cc3cccc4ccccc34)C[C@H]2COc2ccc(F)cc2C(=O)N1C [Ex. 488, (2S,11S,19aS)-N-[3-(dimethylamino)propyl]-15-fluoro-7,12-dimethyl-2-{[2-(1-naphthyl)acetyl]amino}-5,8,13-trioxo-2,3,6,7,8,9,10,11,12,13,19,19a-dodecahydro-1H,5H-pyrrolo[2,1-c] [1,4,7,12] benzoxatriazacyclopentadecine-11-carboxamide]
inhibition at 10 µM ([1]; at 10 μM): 23%

CN1CC(=O)N2C[C@@H](NC(=O)Cc3cccc4ccccc34)C[C@H]2COc2ccc(F)cc2C(=O)N(C)[C@H](C(=O)NCCNC(=N)N)CCC1=O [Ex. 484, (2S,11S,19aS)-N-(2-{[amino(imino)methyl]amino}ethyl)-15-fluoro-7,12-dimethyl-2-{[2-(1-naphthyl)acetyl]amino}-5,8,13-trioxo-2,3,6,7,8,9,10,11,12,13,19,19a-dodecahydro-1H,5H-pyrrolo[2,1-c] [1,4,7,12] benzoxatriazacyclopentadecine-11-carboxamide]
half-life at 10 µM [2]: 0.35 h
Metabolic Stability 60 min hum [% remain.] [2]: 11 % remain.
IC50 [1]: 0.2 µM
inhibition at 10 µM ([1]; at 10 μM): 99%
Plasma Stability T½ [min] hum [3]: > 240 min
Plasma Stability 240 min hum [% remain.] [3]: 100 % remain.
Plasma Stability T½ [min] mouse [4]: > 240 min
Plasma Stability 240 min mouse [% remain.] [4]: 90 % remain.
Metabolic Stability T½ [min] mouse [5]: > 60 min
Metabolic Stability 60 min mouse [% remain.] [5]: 100 % remain.

CN(C)CCNC(=O)[C@@H]1CCC(=O)N(C)CC(=O)N2C[C@@H](NC(=O)Cc3cccc(C(F)(F)F)c3)C[C@H]2COc2ccc(F)cc2C(=O)N1C [Ex. 495, (2S,11S,19aS)-N-[2-(dimethylamino)ethyl]-15-fluoro-7,12-dimethyl-5,8,13-trioxo-2-({2-[3-(trifluoromethyl)phenyl]acetyl}amino)-2,3,6,7,8,9,10,11,12,13,19,19a-dodecahydro-1H,5H-pyrrolo[2,1-c] [1,4,7,12] benzoxatriazacyclopentadecine-11-carboxamide]
inhibition at 10 µM ([1]; at 10 μM): 26%
